Biological target: human HSP90a (recombinant N-terminal nucleotide binding domain) (Homo sapiens (Human), UniProt P07900)
Assay: Competition fluorescence polarization binding assay with TSD-FP probe
Details: method of Example A-1; incubation time not stated; read-out: Binding Affinity IC50
Procedure: The reaction can be followed kinetically using fluorescence (excitation λ=485 nm; emission λ=538 nm). The binding affinity of the test compound to HSP90 is determined by the changes in the polarized fluorescence; the intensity of the polarized fluorescence is proportional to the fraction of bound probe. A novel small molecule fluorescence probe, (S,E)-5-(2-(2-amino-7-(4-fluoro-2-(6-methoxypyridin-2-yl)phenyl)-4-methyl-7,8-dihydroquinazolin-5(6H)-ylideneaminooxy)ethylcarbamoyl)-2-(6-hydroxy-3-oxo-3H-xanthen-9-yl)benzoic acid (TSD-FP probe) was specifically developed for the assay. Inhibition constants (IC50) may be calculated by non-linear curve fitting of the compound concentrations and fluorescence intensities to the standard IC50 equation.
The sequence of human wild-type HSP90a is well known in the art; see, Chen B. et al. Genomics 2005.86:627-637. The gene encoding HSP90a can be isolated from RNA, cDNA or cDNA libraries. In this case, the gene encoding residues 9-236 of image clone 5270926 of HSP90α (ATCC) was isolated. This portion of the gene encoding a section of human HSP90a that includes the N-terminal nucleotide binding domain of human HSP90a was cloned into pET28a vector (Novagen). The DNA sequence of the vector is shown in SEQ ID NO: 1. Expression from this vector produced a protein consisting of the recombinant N-terminal nucleotide binding domain of HSP90a with a cleavable 6′-histidine tag and a cleavage site at the N-terminus The amino acid sequence of this recombinant protein is shown in SEQ ID NO: 2.
Recombinant human N-terminal truncated His6-HSP90a was expressed in E. coli (BL21) cells with IPTG induction. Cell paste from 24×60 mL tubes (grown in a multi-tube airlift fermentor) was lysed using an automated sample lyser. Briefly, the pellet in each tube was suspended in 21 mL of lysis buffer consisting of 50 mM Tris pH 7.9, 50 mM NaCl, 1 mM MgCl2, 0.6 g/L Lysozyme (Sigma), 100 μL/L Benzonase (Novagen). […] After incubation, 5 M NaCl was added to bring the final salt concentration to 400 mM. The tubes were sonicated for 50 seconds and then centrifuged at 3400 rpm for 50 min. The supernatants were pooled and 4 ml of ProBond Ni resin (Invitrogen) was added. After at least 30 minutes, the resin was spun down, washed with 25 mM Tris pH 7.6, 400 mM NaCl, 20 mM imidazole, poured into a column and washed with 10 column volumes of the same buffer. The protein was eluted from the column using 3 column volumes of 25 mM Tris pH 7.6, 400 mM NaCl, 400 mM imidazole. The eluate was loaded onto a Supedex 200 column (GE Healthcare) equilibrated with 25 mM Tris pH 7.6, 250 mM NaCl, 0.25 mM TCEP, 1 mM EDTA and peak fractions were pooled and concentrated to ˜6 mg/mL using 10 kDA MWCO centrifugal concentrators (Millipore). Aliquots were flash frozen in liquid nitrogen and stored at −80° C. All purification was done at 4° C.
A fluorescein labeled small molecule was designed and synthesized as a probe (TSD-FP probe) for the determination of the binding affinity of the test compound to HSP90 proteins. The synthesis of the small molecule, (S,E)-2-amino-7-(4-fluoro-2-(6-methoxypyridin-2-yl)phenyl)-4-methyl-7,8-dihydroquinazolin-5(6H)-one O-2-aminoethyl oxime (Compound 24) was described in Examples 24 and 25 above. The TSD-FP probe was prepared according to the following procedure:
The inhibitory effect of the compounds of the invention against HSP90a was determined by fluorescence polarization assay. The assay was run in a black 384-well-plate and in an assay buffer comprising 25 mM Hepes pH 7.3, 150 mM NaCl, 0.1 mM EDTA, 0.01% Brij35, 1 mM DTT.
To each test well, an aliquot of buffer, 2 μl of test compound in 10% DMSO, 4 μl of 6.25 nM of TSD FP probe, 4 μl of 12.5 nM of purified HSP90a protein were added. […] For negative control, no inhibitor was added.

Compound | IC50 [nM]
COc1cccc(-c2cc(F)ccc2[C@H]2Cc3nc(N)nc(C)c3/C(=N/OCC(CO)CO)N2)n1 [Compound 35, (R,Z)-2-Amino-7-(4-fluoro-2-(6-methoxypyridin-2-yl)phenyl)-4-methyl-7,8-dihydropyrido[4,3-d]pyrimidin-5(6H)-one O-3-hydroxy-2-(hydroxymethyl)propyl oxime] | 13
COc1cccc(-c2cc(F)ccc2[C@H]2Cc3nc(N)nc(C)c3/C(=N/OC[C@H]3O[C@@H](OC)[C@H](O)[C@@H]3O)N2)n1 (mixture of isomers) [Compound 45, (R,Z)-2-amino-7-(4-fluoro-2-(6-methoxypyridin-2-yl)phenyl)-4-methyl-7,8-dihydropyrido[4,3-d]pyrimidin-5(6H)-one O-((2R,3S,4R,5R)-3,4-dihydroxy-5-methoxytetrahydrofuran-2-yl)methyl oxime] | 10
COc1cccc(-c2cc(F)ccc2[C@H]2Cc3nc(N)nc(C)c3/C(=N/OCC[C@H](O)CO)N2)n1 [Compound 37, (R,Z)-2-amino-7-(4-fluoro-2-(6-methoxypyridin-2-yl)phenyl)-4-methyl-7,8-dihydropyrido[4,3-d]pyrimidin-5(6H)-one O—(S)-3,4-dihydroxybutyl oxime] | 6
COc1cccc(-c2cc(F)ccc2[C@H]2Cc3nc(N)nc(C)c3/C(=N/OCCCO)N2)n1 [Compound 78, (R,Z)-2-amino-7-(4-fluoro-2-(6-methoxypyridin-2-yl)phenyl)-4-methyl-7,8-dihydropyrido[4,3-d]pyrimidin-5(6H)-one O-3-hydroxypropyl oxime] | 4
COc1cccc(-c2cc(F)ccc2[C@H]2Cc3nc(N)nc(C)c3/C(=N/OC[C@H](O)CO)N2)n1 [Compound 33, (R,Z)-2-Amino-7-(4-fluoro-2-(6-methoxypyridin-2-yl)phenyl)-4-methyl-7,8-dihydropyrido[4,3-d]pyrimidin-5(6H)-one O—(R)-2,3-dihydroxypropyl oxime] | 4
COc1cccc(-c2cc(F)ccc2[C@H]2Cc3nc(N)nc(C)c3/C(=N/OCC(=O)N(C)C)N2)n1 [Compound 83, (R,Z)-2-(2-amino-7-(4-fluoro-2-(6-methoxypyridin-2-yl)phenyl)-4-methyl-7,8-dihydropyrido[4,3-d]pyrimidin-5(6H)-ylideneaminooxy)-N,N-dimethylacetamide] | 8
COc1cccc(-c2cc(F)ccc2[C@H]2Cc3nc(N)nc(C)c3/C(=N/OCC3CCC(O)CC3)N2)n1 (stereo partly drawn) [Compound 65, (R,Z)-2-amino-7-(4-fluoro-2-(6-methoxypyridin-2-yl)phenyl)-4-methyl-7,8-dihydropyrido[4,3-d]pyrimidin-5(6H)-one O-((1s,4S)-4-hydroxycyclohexyl)methyl oxime] | 10
COc1cccc(-c2cc(F)ccc2[C@H]2Cc3nc(N)nc(C)c3/C(=N/OCC3C[C@@H](O)[C@@H](O)C3)N2)n1 (stereo partly drawn) [Compound 59, (7R,Z)-2-amino-7-(4-fluoro-2-(6-methoxypyridin-2-yl)phenyl)-4-methyl-7,8-dihydropyrido[4,3-d]pyrimidin-5(6H)-one O-((3R,4S)-3,4-dihydroxycyclopentyl)methyl oxime] | 8

Further compounds by falling IC50, results first:

IC50 [nM] | Compound
13 | COc1cccc(-c2cc(F)ccc2[C@H]2Cc3nc(N)nc(C)c3/C(=N/OCC(=O)N(C)C[C@H](O)CO)N2)n1 [Compound 96, 2-((Z)—((R)-2-amino-7-(4-fluoro-2-(6-methoxypyridin-2-yl)phenyl)-4-methyl-7,8-dihydropyrido[4,3-d]pyrimidin-5(6H)-ylidene)aminooxy)-N—((S)-2,3-dihydroxypropyl)-N-methylacetamide]
8 | COc1cccc(-c2cc(F)ccc2[C@H]2Cc3nc(N)nc(C)c3/C(=N/OCC(=O)N(C)CCO)N2)n1 [Compound 99, (R,Z)-2-(2-amino-7-(4-fluoro-2-(6-methoxypyridin-2-yl)phenyl)-4-methyl-7,8-dihydropyrido[4,3-d]pyrimidin-5(6H)-ylideneaminooxy)-N-(2-hydroxyethyl)-N-methylacetamide]
8 | COc1cccc(-c2cc(F)ccc2[C@H]2Cc3nc(N)nc(C)c3/C(=N/O[C@@H](CCO)C(=O)N(C)C)N2)n1 [Compound 93, (S)-2-((Z)—((R)-2-amino-7-(4-fluoro-2-(6-methoxypyridin-2-yl)phenyl)-4-methyl-7,8-dihydropyrido[4,3-d]pyrimidin-5(6H)-ylidene)aminooxy)-4-hydroxy-N,N-dimethylbutanamide]
6 | COc1cccc(-c2cc(F)ccc2[C@H]2Cc3nc(N)nc(C)c3/C(=N/OCCCCO)N2)n1 [Compound 79, (R,Z)-2-amino-7-(4-fluoro-2-(6-methoxypyridin-2-yl)phenyl)-4-methyl-7,8-dihydropyrido[4,3-d]pyrimidin-5(6H)-one O-4-hydroxybutyl oxime]
5 | COc1cccc(-c2cc(F)ccc2[C@H]2Cc3nc(N)nc(C)c3/C(=N/OC3C[C@@H](O)[C@@H](O)C3)N2)n1 (stereo partly drawn) [Compound 58, (7R,Z)-2-amino-7-(4-fluoro-2-(6-methoxypyridin-2-yl)phenyl)-4-methyl-7,8-dihydropyrido[4,3-d]pyrimidin-5(6H)-one O-(3R,4S)-3,4-dihydroxycyclopentyl oxime]
4 | COc1cccc(-c2cc(F)ccc2[C@H]2Cc3nc(N)nc(C)c3/C(=N/OCC(=O)N3CC[C@@H](F)C3)N2)n1 [Compound 85, 2-((Z)—((R)-2-amino-7-(4-fluoro-2-(6-methoxypyridin-2-yl)phenyl)-4-methyl-7,8-dihydropyrido[4,3-d]pyrimidin-5(6H)-ylidene)aminooxy)-1-((R)-3-fluoropyrrolidin-1-yl)ethanone]
3 | COc1cccc(-c2cc(F)ccc2[C@H]2Cc3nc(N)nc(C)c3/C(=N/O)N2)n1 [Compound 61, (R,Z)-2-amino-7-(4-fluoro-2-(6-methoxypyridin-2-yl)phenyl)-4-methyl-7,8-dihydropyrido[4,3-d]pyrimidin-5(6H)-one oxime]
